Data: ChEMBL document CHEMBL1177819, “Monastrol analogs: a synthesis of pyrazolopyridine, benzopyranopyrazolopyridine, and oxygen-bridged azolopyrimidine derivatives and their biological screening” (Bioorg Med Chem Lett, 2010)
Activity calls are given as the source filed them. No cut-off for these calls is given here.

What was measured:
[1] = target: T1, Kinesin-like protein KIF11 (Homo sapiens) (UniProt P52732); assay: Inhibition of kinasin spindle protein by ATPase assay
T1 sequence (whole entry): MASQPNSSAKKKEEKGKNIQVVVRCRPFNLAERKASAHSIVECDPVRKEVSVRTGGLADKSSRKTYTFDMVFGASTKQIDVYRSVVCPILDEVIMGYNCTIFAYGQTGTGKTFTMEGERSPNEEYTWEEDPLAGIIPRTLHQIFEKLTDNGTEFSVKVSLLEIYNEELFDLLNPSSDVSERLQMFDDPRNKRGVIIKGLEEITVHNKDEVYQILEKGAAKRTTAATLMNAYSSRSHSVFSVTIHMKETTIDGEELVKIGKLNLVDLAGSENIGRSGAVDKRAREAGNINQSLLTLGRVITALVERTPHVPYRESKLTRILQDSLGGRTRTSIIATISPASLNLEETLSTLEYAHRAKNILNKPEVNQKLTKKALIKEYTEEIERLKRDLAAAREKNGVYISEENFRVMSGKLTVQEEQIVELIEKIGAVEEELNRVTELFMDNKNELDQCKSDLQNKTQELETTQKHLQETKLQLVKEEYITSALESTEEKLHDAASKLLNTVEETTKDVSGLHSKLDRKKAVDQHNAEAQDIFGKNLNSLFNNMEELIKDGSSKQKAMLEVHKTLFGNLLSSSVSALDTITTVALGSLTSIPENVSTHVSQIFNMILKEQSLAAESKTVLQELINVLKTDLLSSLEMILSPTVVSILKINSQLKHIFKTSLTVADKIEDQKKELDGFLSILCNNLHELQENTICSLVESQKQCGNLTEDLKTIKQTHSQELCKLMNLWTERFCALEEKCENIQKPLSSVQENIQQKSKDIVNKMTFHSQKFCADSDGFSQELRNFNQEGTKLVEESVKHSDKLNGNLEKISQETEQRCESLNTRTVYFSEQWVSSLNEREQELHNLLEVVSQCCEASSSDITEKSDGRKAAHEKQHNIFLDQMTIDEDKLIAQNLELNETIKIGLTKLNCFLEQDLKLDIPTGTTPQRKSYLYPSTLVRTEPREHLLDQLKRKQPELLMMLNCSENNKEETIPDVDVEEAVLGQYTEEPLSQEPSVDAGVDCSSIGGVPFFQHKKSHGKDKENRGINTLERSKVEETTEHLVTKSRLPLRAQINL

[2] = target: T1, Kinesin-like protein KIF11 (Homo sapiens); assay: Inhibition of kinasin spindle protein in human HeLa cells assessed as inhibition of induction of mitotic arrest; assay type: cell-based
[3] = Toxicity in african green monkey BSC1 cells at 100 uM; assay type: cell-based; details: chlorocebus aethiops, bsc-1, 100 µM
HeLa = assay: Toxicity in human HeLa cells at 100 uM; assay type: cell-based

Row | Structure (SMILES) | inhibition [1] | inhibition [2] | Activity [3] | Activity (HeLa)
1 | COC(=O)C1=C(C)Nc2n[nH]c(C)c2C1c1cccc(O)c1 (centres undefined) | inactive | inactive | – | –
2 | Cc1cc2n(n1)[C@H]1C[C@@](C)(N2)Oc2ccccc21 | inactive | inactive | – | –
3 | C[C@@]12C[C@@H](c3ccccc3O1)n1nnnc1N2 | inactive | inactive | – | –
4 | C[C@@]12C[C@@H](c3ccccc3O1)N1CCSC1=N2 | inactive | inactive | – | –
5 | C[C@@]12C[C@@H](c3ccccc3O1)n1c(nc3ccccc31)N2 | inactive | inactive | Toxic | Toxic
6 | CC1=C2C(=O)Oc3ccccc3C2c2c(n[nH]c2C)N1 (centres undefined) | inactive | inactive | – | –
